In patent publication US8604202B2, “Thienopyridone derivatives as AMP-activated protein kinase (AMPK) activators” (Merck Patent GmbH, priority 2008, dated 2013):

Molecular target: T1, AMPK protein (recombinant α1β1γ2) (Homo sapiens, UniProt Q13131+Q9Y478)
T1 construct: made in house; host or cells: E. coli
Experiment: AMPK enzymatic activity (Delfia, AMARA peptide)
Format: biochemical
Conditions: compound 30 μM vs AMP 30 μM; 125 μM ATP; 30 min room temperature; ratio 90% or higher = direct activator
Protocol: The following biological test allows the determination of the efficacy of such compounds of formula (I) onto AMPK protein (recombinant α1β1γ2).
Human recombinant AMPK enzyme was expressed in E. Coli and was reactivated in vitro by LKB1 prior to enzyme activity determination.
AMPK enzyme activities were assayed by using A Delfia technology. AMPK enzyme activities were carried out in microtiter plates (50 mM Hepes buffer, pH 7.4 with 125 μM ATP respectively) in the presence of a synthetic peptide substrate (AMARAASAAALARRR, the “AMARA” peptide) and activators in serial dilutions. Reactions were initiated by the addition of AMPK (50-100 ng). Following mixing, the plates were incubated for 30 min at room temperature. Enzyme activity was assayed by using an anti-phosphoserine antibody to measure the quantity of phosphate incorporated into the AMARAA.
Ratio between the % of control (basal activity) of compound of formula (I) at 30 μM and the % of control (basal activity) of AMP (natural substrate) at 30 μM. Compounds of formula (I) in the table II are considered as direct activator of AMPK if the ratio is 90% or higher.

T1 sequence (Q13131 whole entry): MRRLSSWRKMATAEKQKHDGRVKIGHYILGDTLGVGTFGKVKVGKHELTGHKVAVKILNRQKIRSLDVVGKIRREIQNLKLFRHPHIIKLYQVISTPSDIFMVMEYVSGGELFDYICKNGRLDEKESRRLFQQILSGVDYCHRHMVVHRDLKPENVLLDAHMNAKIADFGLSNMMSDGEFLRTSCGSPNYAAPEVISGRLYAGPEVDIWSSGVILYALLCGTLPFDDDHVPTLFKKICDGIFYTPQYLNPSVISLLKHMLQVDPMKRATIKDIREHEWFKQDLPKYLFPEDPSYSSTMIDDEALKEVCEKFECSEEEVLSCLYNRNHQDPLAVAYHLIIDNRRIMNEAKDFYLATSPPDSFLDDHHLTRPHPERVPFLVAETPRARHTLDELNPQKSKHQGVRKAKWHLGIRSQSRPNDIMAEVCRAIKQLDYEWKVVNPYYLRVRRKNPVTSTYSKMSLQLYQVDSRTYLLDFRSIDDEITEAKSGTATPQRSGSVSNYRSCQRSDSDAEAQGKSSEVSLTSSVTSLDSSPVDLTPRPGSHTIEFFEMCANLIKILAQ
T1 sequence (Q9Y478 whole entry): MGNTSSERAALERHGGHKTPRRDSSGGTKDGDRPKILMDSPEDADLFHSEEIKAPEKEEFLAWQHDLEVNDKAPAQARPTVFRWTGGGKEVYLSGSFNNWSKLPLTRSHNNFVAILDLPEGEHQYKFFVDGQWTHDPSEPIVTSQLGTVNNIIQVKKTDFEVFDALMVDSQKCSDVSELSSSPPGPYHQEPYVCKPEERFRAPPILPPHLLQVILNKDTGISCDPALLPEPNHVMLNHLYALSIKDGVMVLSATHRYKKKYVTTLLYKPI
T1 sequence (Q9UGJ0 whole entry partner): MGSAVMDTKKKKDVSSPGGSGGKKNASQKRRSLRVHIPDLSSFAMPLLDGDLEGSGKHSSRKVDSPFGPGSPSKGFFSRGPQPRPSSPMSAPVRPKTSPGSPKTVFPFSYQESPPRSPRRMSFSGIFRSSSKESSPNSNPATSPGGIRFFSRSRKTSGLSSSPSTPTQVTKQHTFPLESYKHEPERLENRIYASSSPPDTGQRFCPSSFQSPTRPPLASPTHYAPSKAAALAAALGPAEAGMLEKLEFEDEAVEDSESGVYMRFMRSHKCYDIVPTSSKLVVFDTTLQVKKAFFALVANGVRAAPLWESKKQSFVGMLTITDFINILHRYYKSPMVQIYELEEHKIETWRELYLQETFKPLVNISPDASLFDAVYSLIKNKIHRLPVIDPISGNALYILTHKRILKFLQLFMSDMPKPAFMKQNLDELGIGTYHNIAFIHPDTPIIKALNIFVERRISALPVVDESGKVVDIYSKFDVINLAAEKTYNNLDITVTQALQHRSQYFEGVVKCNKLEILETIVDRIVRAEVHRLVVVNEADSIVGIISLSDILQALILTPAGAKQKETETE

Row | SMILES | activity: Ratio between the % of control (basal activity) of compound of formula (I) at 30 μM and the % of control (basal activity) of AMP at 30 μM [%]
1 | O=c1[nH]c2sc(Cl)c(-c3ccc(-c4ccccc4O)cc3)c2c(O)c1-c1ccccc1 [Compound 5, 2-chloro-4-hydroxy-3-(2′-hydroxybiphenyl-4-yl)-5-phenyl-6,7-dihydro-thieno[2,3-b]pyridin-6-one] | 138
2 | O=c1[nH]c2scc(-c3ccc(-c4cccc(F)c4)cc3)c2c(O)c1-c1ccccc1 [Compound 10, 3-(3′-fluorobiphenyl-4-yl)-4-hydroxy-5-phenyl-6,7-dihydro-thieno[2,3-b]pyridin-6-one] | 153
3 | O=c1[nH]c2scc(-c3ccc(-c4ccc(O)cc4)cc3)c2c(O)c1-c1ccccc1 [Compound 12, 4-hydroxy-3-(4′-hydroxybiphenyl-4-yl)-5-phenyl-6,7-dihydro-thieno[2,3-b]pyridin-6-one] | 139
4 | O=c1[nH]c2scc(-c3ccc(-c4ccc(F)cc4)cc3)c2c(O)c1-c1ccccc1 [Compound 13, 3-(4′-fluorobiphenyl-4-yl)-4-hydroxy-5-phenyl-6,7-dihydro-thieno[2,3-b]pyridin-6-one] | 206
5 | Cc1ccc(-c2ccc(-c3csc4[nH]c(=O)c(-c5ccccc5)c(O)c34)cc2)cc1 [Compound 14, 4-hydroxy-3-(4′-methylbiphenyl-4-yl)-5-phenyl-6,7-dihydro-thieno[2,3-b]pyridin-6-one] | 176
6 | O=c1[nH]c2scc(-c3ccc(-c4ccc(C(F)(F)F)cc4)cc3)c2c(O)c1-c1ccccc1 [Compound 16, 4-hydroxy-5-phenyl-3-(4′-trifluoromethylbiphenyl-4-yl)-6,7-dihydro-thieno[2,3-b]pyridin-6-one] | 101
7 | N#Cc1cccc(-c2ccc(-c3csc4[nH]c(=O)c(-c5ccccc5)c(O)c34)cc2)c1 [Compound 17, 3-(3′-cyanobiphenyl-4-yl)-4-hydroxy-5-phenyl-6,7-dihydro-thieno[2,3-b]pyridin-6-one] | 116
8 | N#Cc1ccc(-c2ccc(-c3csc4[nH]c(=O)c(-c5ccccc5)c(O)c34)cc2)cc1 [Compound 19, 3-(4′-cyanobiphenyl-4-yl)-4-hydroxy-5-phenyl-6,7-dihydro-thieno[2,3-b]pyridin-6-one] | 217
9 | O=c1[nH]c2scc(-c3ccc(-c4ccc(F)cc4O)cc3)c2c(O)c1-c1ccccc1 [Compound 21, 3-(4′-fluoro-2′-hydroxybiphenyl-4-yl)-4-hydroxy-5-phenyl-6,7-dihydro-thieno[2,3-b]pyridin-6-one] | 187
10 | O=c1[nH]c2scc(-c3ccc(-c4ccc(F)cc4)cc3)c2c(O)c1-c1ccncc1 [Compound 23, 3-(4′-fluorobiphenyl-4-yl)-4-hydroxy-5-pyridin-4-yl-6,7-dihydro-thieno[2,3-b]pyridin-6-one] | 163
11 | Cc1ccc(-c2ccc(-c3csc4[nH]c(=O)c(-c5ccncc5)c(O)c34)cc2)cc1 [Compound 24, 4-hydroxy-3-(4′-methylbiphenyl-4-yl)-5-pyridin-4-yl-6,7-dihydro-thieno[2,3-b]pyridin-6-one] | 191
12 | COC(=O)c1ccc(-c2ccc(-c3csc4[nH]c(=O)c(-c5ccncc5)c(O)c34)cc2)cc1 [Compound 25, Methyl 4′-(4-hydroxy-6-oxo-5-pyridin-4-yl-6,7-dihydro-thieno[2,3-b]pyridin-3-yl)biphenyl-4-carboxylate] | 154
13 | O=c1[nH]c2scc(-c3ccc(-c4ccccc4)cc3)c2c(O)c1-c1ccncc1 [Compound 26, 3-biphenyl-4-yl-4-hydroxy-5-pyridin-4-yl-6,7-dihydro-thieno[2,3-b]pyridin-6-one] | 258
14 | O=c1[nH]c2scc(-c3ccc(-c4ccoc4)cc3)c2c(O)c1-c1ccncc1 [Compound 27, 3-[4-(3-furyl)phenyl]-4-hydroxy-5-pyridin-4-yl-6,7-dihydro-thieno[2,3-b]pyridin-6-one] | 199
15 | O=c1[nH]c2scc(-c3ccc(-c4ccccc4O)cc3)c2c(O)c1-c1ccncc1 [Compound 28, 4-hydroxy-3-(2′-hydroxybiphenyl-4-yl)-5-pyridin-4-yl-6,7-dihydro-thieno[2,3-b]pyridin-6-one] | 246
16 | O=c1[nH]c2scc(-c3ccc(-c4ccc(O)cc4)cc3)c2c(O)c1-c1ccncc1 [Compound 29, 4-hydroxy-3-(4′-hydroxybiphenyl-4-yl)-5-pyridin-4-yl-6,7-dihydro-thieno[2,3-b]pyridin-6-one] | 213
17 | O=c1[nH]c2scc(-c3ccc(-c4ccncc4)cc3)c2c(O)c1-c1ccncc1 [Compound 30, 4-hydroxy-5-pyridin-4-yl-3-(4-pyridin-4-ylphenyl)-6,7-dihydro-thieno[2,3-b]pyridin-6-one] | 212
18 | O=c1[nH]c2scc(-c3ccc(-c4ccccc4O)cc3)c2c(O)c1-c1cccnc1 [Compound 31, 4-hydroxy-3-(2′-hydroxybiphenyl-4-yl)-5-pyridin-3-yl-6,7-dihydro-thieno[2,3-b]pyridin-6-one] | 143
19 | O=c1[nH]c2scc(-c3ccc(-c4ccccc4F)cc3)c2c(O)c1-c1cccnc1 [Compound 32, 3-(2′-fluorobiphenyl-4-yl)-4-hydroxy-5-pyridin-3-yl-6,7-dihydro-thieno[2,3-b]pyridin-6-one] | 159
20 | O=c1[nH]c2scc(-c3ccc(-c4cccc(F)c4)cc3)c2c(O)c1-c1cccnc1 [Compound 33, 3-(3′-fluorobiphenyl-4-yl)-4-hydroxy-5-pyridin-3-yl-6,7-dihydro-thieno[2,3-b]pyridin-6-one] | 147
21 | O=c1[nH]c2scc(-c3ccc(-c4ccc(F)cc4)cc3)c2c(O)c1-c1cccnc1 [Compound 34, 3-(4′-fluorobiphenyl-4-yl)-4-hydroxy-5-pyridin-3-yl-6,7-dihydro-thieno[2,3-b]pyridin-6-one] | 165
22 | Cc1ccc(-c2ccc(-c3csc4[nH]c(=O)c(-c5cccnc5)c(O)c34)cc2)cc1 [Compound 37, 4-hydroxy-3-(4′-methylbiphenyl-4-yl)-5-pyridin-3-yl-6,7-dihydro-thieno[2,3-b]pyridin-6-one] | 168
23 | O=c1[nH]c2scc(-c3ccc(-c4ccoc4)cc3)c2c(O)c1-c1cccnc1 [Compound 38, 4-hydroxy-3-[4-(3-furyl)phenyl]-5-pyridin-3-yl-6,7-dihydro-thieno[2,3-b]pyridin-6-one] | 145
24 | O=c1[nH]c2scc(-c3ccc(-c4cccc(CO)c4)cc3)c2c(O)c1-c1cccnc1 [Compound 39, 4-hydroxy-3-(3′-hydroxymethylbiphenyl-4-yl)-5-pyridin-3-yl-6,7-dihydro-thieno[2,3-b]pyridin-6-one] | 147
25 | O=c1[nH]c2scc(-c3ccc(-c4cccnc4)cc3)c2c(O)c1-c1cccnc1 [Compound 40, 4-hydroxy-5-pyridin-3-yl-3-(4-pyridin-3-ylphenyl)-6,7-dihydro-thieno[2,3-b]pyridin-6-one] | 162
26 | COc1cc(F)ccc1-c1ccc(-c2csc3[nH]c(=O)c(-c4ccccc4)c(O)c23)cc1 [Compound 42, 3-(4′-fluoro-2′-methoxybiphenyl-4-yl)-4-hydroxy-5-phenyl-6,7-dihydro-thieno[2,3-b]pyridin-6-one] | 107
27 | O=c1[nH]c2scc(-c3ccc(-c4ccc(O)cc4O)cc3)c2c(O)c1-c1ccccc1 [Compound 43, 4-hydroxy-3-(2′,4′-dihydroxybiphenyl-4-yl)-5-phenyl-6,7-dihydro-thieno[2,3-b]pyridin-6-one] | 139
